According to patent publication US20040002450A1, “Y17 - isolated molecules comprising epitopes containing sulfated moieties, antibodies to such epitopes, and uses thereof” (priority 2000, published 2004):
Non-standard residues stand in square brackets, D forms with d. No end group written: not given here. sY = N[C@@H](Cc1ccc(OS(=O)(=O)O)cc1)C(=O)O

Legend:
[1] = tested on: Y1 binding to purified glycocalicin; assay: ELISA: effect of synthetic GPIbα peptides on Y1 binding to purified glycocalicin; parameters: species or system human; conditions: 0.25 μg/well Y1
Experimental: ELISA assays were developed to evaluate the effect of the GPIb derived synthetic peptides on the binding of Y1 to purified glycocalicin. In addition, FACS analysis using washed platelets was carried out. To evaluate the importance of sulfated tyrosine within the Y1 binding site of GPIb, a competitive binding FACS analysis was used. Y1-scFv at a concentration of 1 μg was preincubated with different peptides at concentrations of 2.5 and 200 μM. After a preincubation for 30 minutes at room temperature the mixture was added to a tube containing ˜10^7 washed platelets and the binding of Y1 to the washed platelets was assessed using polyclonal rabbit anti-scFv-PE. The inhibitory effect of the peptides compared to control binding (Y1 alone) was evaluated by measuring the residual binding of Y1 to washed platelets. The peptides and the results are described in Table 1 and are similar to results that were observed using the same peptides in an ELISA assay (Table B). In both assays, a control level of Y1 binding was determined, as follows. A polystyrene microtiter maxisorb plate was coated with (a) purified glycocalicin or (b) washed platelets. […] The plate was then incubated with rabbit anti-scFv followed by addition of anti rabbit —HRP (horse radish peroxidase) and HRP substrate. The level of anti rabbit —HRP binding was measured by the intensity of the color produced, and the level of anti rabbit —HRP binding correlates with the level of binding of anti Y1-scFv and the level of binding of Y1. The optical density was measured at A405. Each sample was assayed in duplicate, and the average was calculated.
The effect of synthetic GPIbα peptides on Y1 binding to purified glycocalicin was evaluated by mixing varying concentrations of the peptides with a constant amount of Y1. After a preincubation for 30 minutes at room temperature, the mixture was added to a polystyrene microtiter maxisorb plate coated with purified glycocalicin, as described for evaluation of Y1 binding in the absence of peptides. The inhibitory effect of the peptides was evaluated by measuring the residual binding of Y1 to glycocalicin using rabbit anti Y1scFv and anti rabbit —HRP antibodies, as described for evaluation of Y1 binding in the absence of peptides. This study was performed with four peptides representing various subsets of the sequence 268 to 285 and a control peptide. Each peptide was tested at different concentrations: 200 μM, 25 μM, 2.5 μM, and 0.5 μM.

[2] = tested on: scFv Y1 binding to glycocalicin; assay: Competitive binding ELISA of sulfated peptides (scFv Y1 binding to immobilized glycocalicin); parameters: species or system human; conditions: peptide 1, 10 and 100 μM, preincubated 10 minutes with scFv Y1
Experimental: A competitive binding ELISA assay was used to assess the importance of the presence and position of sulfated tyrosines to the binding of peptides to Y1.
Glycocalicin was immobilized on a Maxisorb plate. scFv Y1 was preincubated with a peptide of interest for 10 minutes at three different concentrations (1, 10 and 100 μM) in order to observe a dose response. (Table 12). After preincubation, the mixture (Y1+peptide) was added to the plate, and binding of scFv Y1 was assessed using polyclonal rabbit anti-VL, which recognizes the VL chain of scFv Y1, followed by anti-rabbit-HRP. In mixtures in which the peptide bound to scFv Y1, a decrease in the binding of scFv Y1 to glycocalicin compared to control binding was observed.

[3] = tested on: Y1 binding to washed platelets; assay: Comparative FACS: effect of synthetic GPIbα peptides on Y1 binding to washed platelets; parameters: species or system human
Experimental: ELISA assays were developed to evaluate the effect of the GPIb derived synthetic peptides on the binding of Y1 to purified glycocalicin. In addition, FACS analysis using washed platelets was carried out. To evaluate the importance of sulfated tyrosine within the Y1 binding site of GPIb, a competitive binding FACS analysis was used. Y1-scFv at a concentration of 1 μg was preincubated with different peptides at concentrations of 2.5 and 200 μM. After a preincubation for 30 minutes at room temperature the mixture was added to a tube containing ˜10^7 washed platelets and the binding of Y1 to the washed platelets was assessed using polyclonal rabbit anti-scFv-PE. The inhibitory effect of the peptides compared to control binding (Y1 alone) was evaluated by measuring the residual binding of Y1 to washed platelets. The peptides and the results are described in Table 1 and are similar to results that were observed using the same peptides in an ELISA assay (Table B). In both assays, a control level of Y1 binding was determined, as follows. A polystyrene microtiter maxisorb plate was coated with (a) purified glycocalicin or (b) washed platelets. After extensive washing, 0.5 μg/well of Y1 was added. The plate was then incubated with rabbit anti-scFv followed by addition of anti rabbit —HRP (horse radish peroxidase) and HRP substrate. The level of anti rabbit —HRP binding was measured by the intensity of the color produced, and the level of anti rabbit —HRP binding correlates with the level of binding of anti Y1-scFv and the level of binding of Y1. The optical density was measured at A405. Each sample was assayed in duplicate, and the average was calculated.

[4] = tested on: KG-1 cells; assay: AML KG-1 model in SCID/NOD mice; format: in vivo
Experimental: The in vivo mouse model for human AML uses SCID/NOD mice (Jackson Laboratories) inoculated with KG-1 cells derived from a human AML cell line.
In a first experiment, NOD/SCID mice were pretreated with 100 mg/kg CYTOXAN®. Four days post CYTOXANT injection, KG-1 cells were injected intravenously into the tail vein of six groups of mice. (Table N, Groups 2 and 5-9). One group of mice (Table N, Group 1) was injected with PBS alone (control).
Beginning 19 days post KG-1 injection mice were treated with: CONY1, Doxorubicin, CONY1-Doxorubicin conjugate, or Mylotarg®. (Mylotarg® is a monoclonal antibody (anti CD33) conjugated chemically to calcheamicin recently approved by the FDA for treatment of AML patients age 60 and over in a first relapse.) Mice were treated once or three times per week for three weeks. One group (group 2) of KG-1 inoculated mice Were left untreated. (Table N). Two other groups of mice (groups 3 and 4) were injected with KG-1 cells that were previously incubated with CONY1 or 181-scFv (a negative, non-specific control antibody) in serum free RPMI containing 1% BSA at 4° C. for 1 h. The antibodies were used at a concentration of 0.25 mg scFv/10^8 cells (75 μg/mouse). Before injection into the mice the preincubated KG-1 cells were washed are resuspended in RPMI. The KG-1 cells in RPMI were inoculated into mice at a concentration of 75 μg scFv/0.2 ml RPMI per mouse. Group 3 mice were inoculated with KG-1+CONY1, and group 4 mice were inoculated with KG-1+181-scFv. (Table N). […]
Mice were sacrificed from 60 to 65 days post cell injection. Bone marrow and blood samples were analyzed by flow cytometry using mouse anti human CD34-FITC (IQP 144F) (or anti CD44-FITC (MCA89F, Serotec)) and Y1-Biotin/SAV-PE. […]
An additional experiment was performed in which SCID-NOD mice were i.v. injected with 3×10^4 MOLT-4 cells/mouse 5 days post treatment with cyclophosphamide. […] Bone marrow was extracted and analyzed by FACS analysis using a commercially available antiCD44 antibody for the detection of MOLT-4 cells in the mice bone marrow cell population.

For “GDEGDTDLY*DY*Y*PEEDTE (GDEGDTDL[sY]D[sY][sY]PEEDTE) [P-1-S, residues 268-285 of GPIbα, Y* sulfated tyrosine]”, the “Residual Binding of Y1 (% of baseline)” value ([1]; peptide 0.5 μM) was 89 % of baseline, the “Residual Binding of Y1 (% of baseline)” value ([1]; peptide 2.5 μM) was 62 % of baseline and the “Residual Binding of Y1 (% of baseline)” value ([1]; peptide 25 μM) was 25 % of baseline. For the same compound, the “Residual Binding of Y1 (% of baseline)” value ([1]; peptide 200 μM) was 0 % of baseline, the “inhibition of Y1 binding to glycocalicin (in words)” value [2] was “did inhibit” and the “Residual Binding of Y1 (% of baseline) (Geo Mean)” value ([3]; peptide 2.5 μM) was 41 % of baseline. The “Residual Binding of Y1 (% of baseline) (Geo Mean)” value ([3]; peptide 200 μM) was 5 % of baseline.

“GDEGDTDLY*DY*Y*P (GDEGDTDL[sY]D[sY][sY]P) [P-3-S, residues 268-280 of GPIbα, Y* sulfated tyrosine]” was tested, and the “Residual Binding of Y1 (% of baseline)” value ([1]; peptide 0.5 μM) was 80 % of baseline, the “Residual Binding of Y1 (% of baseline)” value ([1]; peptide 2.5 μM) was 67 % of baseline and the “Residual Binding of Y1 (% of baseline)” value ([1]; peptide 25 μM) was 21 % of baseline. For the same compound, the “Residual Binding of Y1 (% of baseline) (Geo Mean)” value ([3]; peptide 2.5 μM) was 82 % of baseline and the “Residual Binding of Y1 (% of baseline) (Geo Mean)” value ([3]; peptide 200 μM) was 26 % of baseline.

For “GDEGDTDLYDYYPEEDTE [P-1, residues 268-285 of GPIbα, non-sulfated]”, the “Residual Binding of Y1 (% of baseline)” value ([1]; peptide 0.5 μM) was 88 % of baseline, the “Residual Binding of Y1 (% of baseline)” value ([1]; peptide 2.5 μM) was 94 % of baseline and the “Residual Binding of Y1 (% of baseline)” value ([1]; peptide 25 μM) was 71 % of baseline. The “Residual Binding of Y1 (% of baseline)” value ([1]; peptide 200 μM) was 61 % of baseline, the “Residual Binding of Y1 (% of baseline) (Geo Mean)” value ([3]; peptide 2.5 μM) was 106 % of baseline and the “Residual Binding of Y1 (% of baseline) (Geo Mean)” value ([3]; peptide 200 μM) was 87 % of baseline.

With “Mylotarg: monoclonal antibody (anti CD33) conjugated chemically to calcheamicin, FDA approved for AML” the “KG-1 cells in bone marrow (in words)” value ([4]; 0.2 mg/kg, 1 time per week (group 9)) was “free of KG 1 cells” and the “development of the malignancy / prevalence of bone marrow cancer (in words)” value ([4]; additional experiment, day 60, CONY1 scFv 75 μg/mouse three times/week, Mylotarg 7 μg/mouse once a week) was “completely inhibited”.

“TDLY*DY*Y*PEEDTE (TDL[sY]D[sY][sY]PEEDTE) [P-2-S, residues 273-285 of GPIbα, Y* sulfated tyrosine]” was tested, and the “Residual Binding of Y1 (% of baseline)” value ([1]; peptide 0.5 μM) was 78 % of baseline, the “Residual Binding of Y1 (% of baseline)” value ([1]; peptide 2.5 μM) was 52 % of baseline and the “Residual Binding of Y1 (% of baseline)” value ([1]; peptide 25 μM) was 15 % of baseline. The “Residual Binding of Y1 (% of baseline) (Geo Mean)” value ([3]; peptide 2.5 μM) was 61 % of baseline and the “Residual Binding of Y1 (% of baseline) (Geo Mean)” value ([3]; peptide 200 μM) was 7 % of baseline.

For “REEGRQHFFLLEGRSSYS [negative control peptide, reference compound]”, the “Residual Binding of Y1 (% of baseline)” value ([1]; peptide 0.5 μM) was 121 % of baseline, the “Residual Binding of Y1 (% of baseline)” value ([1]; peptide 2.5 μM) was 100 % of baseline and the “Residual Binding of Y1 (% of baseline)” value ([1]; peptide 25 μM) was 89 % of baseline. For the same compound, the “Residual Binding of Y1 (% of baseline)” value ([1]; peptide 200 μM) was 85 % of baseline, the “Residual Binding of Y1 (% of baseline) (Geo Mean)” value ([3]; peptide 2.5 μM) was 96 % of baseline and the “Residual Binding of Y1 (% of baseline) (Geo Mean)” value ([3]; peptide 200 μM) was 119 % of baseline.

With `COc1cccc2c1C(=O)c1c(O)c3c(c(O)c1C2=O)C[C@@](O)(C(=O)CO)C[C@@H]3O[C@H]1C[C@H](N)[C@H](O)[C@H](C)O1` [Doxorubicin] the “percentage of KG-1 cells in bone marrow compared to untreated group 2 (in words)” value ([4]; 0.1 mg/kg free Doxorubicin, 3 times per week (group 6)) was “statistically significant (p<0.05) lower percentage”.
